Source: ChEMBL document CHEMBL3885861, “Open TG-GATES”

Species on record: Rattus norvegicus
Test: Open TG-GATES - Regimen: Single
Type: toxicity, organism-based, Sprague-Dawley
Set-up: regimen Single, gender Male, age 6 weeks
Conditions: in vivo, po, 300 mg/kg, route gavage, dose level Middle; for APTT / Bas / Eos / Fbg / Hb / Ht / Lym / MCH / MCHC / MCV / Mono / Neu / PT / Plat / RBC / Ret / WBC: tissue Blood; for KIDNEY_L / KIDNEY_R / KIDNEY_TOTAL: tissue Kidney; for LIVER: tissue Liver; for A/G / ALP / ALT / AST / BUN / CRE / Ca / Cl / DBIL / GLC / IP / K / LDH / Na / PL / RALB / TBIL / TC / TG / TP / gamma-GTP: tissue Plasma

`CN/C(=N/CCSCc1nc[nH]c1C)NC#N` [CIMETIDINE] was tested, and the TERMINAL_BW (3 h) was 213.9 g, the APTT (3 h) was 17.7 s and the Bas (3 h) was 0%. For the same compound, the Eos (3 h) was 0.8%, the Fbg (3 h) was 212 mg/dL and the Hb (3 h) was 12.6 g/dL. For the same compound, the Ht (3 h) was 37.5%, the Lym (3 h) was 77.6% and the MCH (3 h) was 21.5 pg. The MCHC (3 h) was 33.7%, the MCV (3 h) was 63.8 fL and the Mono (3 h) was 3%. For the same compound, the Neu (3 h) was 17.2%, the PT (3 h) was 12.8 s and the Plat (3 h) was 128.8 x10_4/uL. The RBC (3 h) was 587.2 x10_4/ul, the Ret (3 h) was 8.2% and the WBC (3 h) was 84.3 x10_2/uL. For the same compound, the KIDNEY_L (3 h) was 1 g, the KIDNEY_R (3 h) was 0.9 g and the KIDNEY_TOTAL (3 h) was 1.9 g. The LIVER (3 h) was 10.5 g, the A/G (3 h) was 1.6 and the ALP (3 h) was 1248.6 IU/L. The ALT (3 h) was 37.4 IU/L, the AST (3 h) was 68.6 IU/L and the BUN (3 h) was 10.8 mg/dL. For the same compound, the CRE (3 h) was 0.4 mg/dL, the Ca (3 h) was 10.7 mg/dL and the Cl (3 h) was 103.4 meq/L. The DBIL (3 h) was 0.072 mg/dL, the GLC (3 h) was 191.2 mg/dL and the IP (3 h) was 8.8 mg/dL. It also gave a K (3 h) of 4.1 meq/L, an LDH (3 h) of 155.6 IU/L and a Na (3 h) of 140.8 meq/L. For the same compound, the PL (3 h) was 158 mg/dL, the RALB (3 h) was 3.3 g/dL and the TBIL (3 h) was 0.1 mg/dL. It also gave a TC (3 h) of 83 mg/dL, a TG (3 h) of 57 mg/dL and a TP (3 h) of 5.4 g/dL. It also gave a gamma-GTP (3 h) of 1.4 IU/L, a TERMINAL_BW (6 h) of 209.1 g and an APTT (6 h) of 19.5 s. It also gave a Bas (6 h) of 0%, an Eos (6 h) of 1% and a Fbg (6 h) of 224 mg/dL. It also gave a Hb (6 h) of 13 g/dL, a Ht (6 h) of 37.3% and a Lym (6 h) of 72.4%. The MCH (6 h) was 21.6 pg, the MCHC (6 h) was 34.8% and the MCV (6 h) was 62.2 fL. It also gave a Mono (6 h) of 3.4%, a Neu (6 h) of 22.6% and a PT (6 h) of 13.4 s. It also gave a Plat (6 h) of 134.4 x10_4/uL, an RBC (6 h) of 600.8 x10_4/ul and a Ret (6 h) of 7.9%. The WBC (6 h) was 100.3 x10_2/uL, the KIDNEY_L (6 h) was 1 g and the KIDNEY_R (6 h) was 1 g. It also gave a KIDNEY_TOTAL (6 h) of 1.9 g, an LIVER (6 h) of 9.3 g and an A/G (6 h) of 1.7. The ALP (6 h) was 926.2 IU/L, the ALT (6 h) was 38.2 IU/L and the AST (6 h) was 68 IU/L. It also gave a BUN (6 h) of 8.4 mg/dL, a CRE (6 h) of 0.4 mg/dL and a Ca (6 h) of 10.4 mg/dL. The Cl (6 h) was 103.2 meq/L, the DBIL (6 h) was 0.068 mg/dL and the GLC (6 h) was 185 mg/dL. It also gave an IP (6 h) of 9.6 mg/dL, a K (6 h) of 3.8 meq/L and an LDH (6 h) of 148.6 IU/L. The Na (6 h) was 141 meq/L, the PL (6 h) was 138.2 mg/dL and the RALB (6 h) was 3.4 g/dL. It also gave a TBIL (6 h) of 0.1 mg/dL, a TC (6 h) of 70.2 mg/dL and a TG (6 h) of 60 mg/dL. For the same compound, the TP (6 h) was 5.5 g/dL, the gamma-GTP (6 h) was 1.4 IU/L and the TERMINAL_BW (9 h) was 208.3 g. For the same compound, the APTT (9 h) was 20.6 s, the Bas (9 h) was 0% and the Eos (9 h) was 0.8%. The Fbg (9 h) was 214.4 mg/dL, the Hb (9 h) was 12.6 g/dL and the Ht (9 h) was 36.5%. For the same compound, the Lym (9 h) was 80.2%, the MCH (9 h) was 21.6 pg and the MCHC (9 h) was 34.5%. For the same compound, the MCV (9 h) was 62.6 fL, the Mono (9 h) was 2.6% and the Neu (9 h) was 15.6%. For the same compound, the PT (9 h) was 13.9 s, the Plat (9 h) was 126.2 x10_4/uL and the RBC (9 h) was 583.4 x10_4/ul. It also gave a Ret (9 h) of 7.8%, a WBC (9 h) of 70.7 x10_2/uL and a KIDNEY_L (9 h) of 1 g. For the same compound, the KIDNEY_R (9 h) was 1 g, the KIDNEY_TOTAL (9 h) was 1.9 g and the LIVER (9 h) was 8.8 g. For the same compound, the A/G (9 h) was 1.7, the ALP (9 h) was 807.2 IU/L and the ALT (9 h) was 31 IU/L. The AST (9 h) was 58.6 IU/L, the BUN (9 h) was 9.8 mg/dL and the CRE (9 h) was 0.4 mg/dL. It also gave a Ca (9 h) of 10.3 mg/dL, a Cl (9 h) of 102 meq/L and a DBIL (9 h) of 0.068 mg/dL. The GLC (9 h) was 189.8 mg/dL, the IP (9 h) was 10.3 mg/dL and the K (9 h) was 3.9 meq/L. For the same compound, the LDH (9 h) was 115.6 IU/L, the Na (9 h) was 141 meq/L and the PL (9 h) was 136 mg/dL. For the same compound, the RALB (9 h) was 3.4 g/dL, the TBIL (9 h) was 0.1 mg/dL and the TC (9 h) was 72.4 mg/dL. The TG (9 h) was 36.4 mg/dL, the TP (9 h) was 5.5 g/dL and the gamma-GTP (9 h) was 1.6 IU/L. For the same compound, the TERMINAL_BW (24 h) was 223.6 g, the APTT (24 h) was 19.1 s and the Bas (24 h) was 0%. The Eos (24 h) was 0.8%, the Fbg (24 h) was 214.8 mg/dL and the Hb (24 h) was 13.5 g/dL. It also gave a Ht (24 h) of 40.7%, a Lym (24 h) of 82.2% and an MCH (24 h) of 21.5 pg. The MCHC (24 h) was 33.3%, the MCV (24 h) was 64.5 fL and the Mono (24 h) was 2.2%. It also gave a Neu (24 h) of 13.6%, a PT (24 h) of 12.7 s and a Plat (24 h) of 126.7 x10_4/uL. The RBC (24 h) was 631.2 x10_4/ul, the Ret (24 h) was 6.5% and the WBC (24 h) was 86.6 x10_2/uL. The KIDNEY_L (24 h) was 1 g, the KIDNEY_R (24 h) was 1 g and the KIDNEY_TOTAL (24 h) was 2 g. The LIVER (24 h) was 10.7 g, the A/G (24 h) was 1.6 and the ALP (24 h) was 1056 IU/L. It also gave an ALT (24 h) of 35.8 IU/L, an AST (24 h) of 67.8 IU/L and a BUN (24 h) of 15.4 mg/dL. It also gave a CRE (24 h) of 0.4 mg/dL, a Ca (24 h) of 10.9 mg/dL and a Cl (24 h) of 102.2 meq/L. It also gave a DBIL (24 h) of 0.09 mg/dL, a GLC (24 h) of 200.8 mg/dL and an IP (24 h) of 7.4 mg/dL. The K (24 h) was 3.9 meq/L, the LDH (24 h) was 183.4 IU/L and the Na (24 h) was 140.8 meq/L. It also gave a PL (24 h) of 159.8 mg/dL, an RALB (24 h) of 3.5 g/dL and a TBIL (24 h) of 0.2 mg/dL. It also gave a TC (24 h) of 77.8 mg/dL, a TG (24 h) of 94 mg/dL and a TP (24 h) of 5.6 g/dL. The gamma-GTP (24 h) was 1.6 IU/L.
